Measurements reported in patent US20120301510A1, “TOLEROGENIC SYNTHETIC NANOCARRIERS COUPLED TO CD1D-RESTRICTED ANTIGENS AND METHODS OF USE” (Selecta Biosciences, Inc., priority 2011, published 2012).

Test system: iNKT cells
Test: iNKT cell activation in mice after injection of aGC and/or rapamycin, soluble or in nanocarriers (flow cytometry of liver lymphocytes)
Assay type: in vivo
Settings: about 4 h after injection
Method: Mice were designated to groups that received PBS alone, soluble aGC, NPaGC, sol aGC+solRAPA, sol aGC+NP RAPA, NPaGC+solRAPA or NPaGC+NP RAPA. Mice were injected at 9 am and at 9.30 AM received BrefeldinA i.v. to prevent release of intracellular cytokines produced. At 1 pm, mice were sacrificed and the liver was perfused with PBS and processed to obtain a single cell suspension enriched for lymphocytes. Cells were stained with cell surface markers for iNKT cells (agc-loaded CD1d tetramers) and T cells receptor (TCRb) and activation marker CD69. The cell suspension was then permeabilized and intracellular cytokine staining was performed for Th1 cytokine IFN-γ, and Th2 cytokines IL-4 and the anti-inflammatory cytokine IL-10. Cells were acquired on a FacsCanto flow cytometer and analyzed on by FlowJo.

## CCCCCCCCCCCCCCCCCCCCCCCCCC(=O)N[C@@H](CO[C@H]1O[C@H](CO)[C@H](O)[C@H](O)[C@H]1O)[C@H](O)[C@H](O)CCCCCCCCCCCCCC [aGC, α-Galactosyl Ceramide (KRN7000)]
  iNKT cell activation as seen by cytokine production and upregulation of CD69 on their surface: activated
